We go through six compounds from US7008944B2, “Antidepressant azaheterocyclylmethyl derivatives of 2,3-dihydro-1,4-Dioxino[2,3-f]quinoxaline” (Wyeth, priority 2001, dated 2006).

In one data set the target is T1, serotonin transporter (Rattus norvegicus, UniProt P31652).
T1 construct: displace ^3H-paroxetine from male rat frontal cortical membranes; from tissue; host or cells: male rat frontal cortex membranes
Briefly: 3H-paroxetine displacement, serotonin transporter affinity. In kind it is binding.

Data set [1] has as its target T2, cloned human 5-HT1A receptors (Homo sapiens, UniProt P08908).
T2 construct: expressed in transfected cells
T2 sequence (P08908 1-422): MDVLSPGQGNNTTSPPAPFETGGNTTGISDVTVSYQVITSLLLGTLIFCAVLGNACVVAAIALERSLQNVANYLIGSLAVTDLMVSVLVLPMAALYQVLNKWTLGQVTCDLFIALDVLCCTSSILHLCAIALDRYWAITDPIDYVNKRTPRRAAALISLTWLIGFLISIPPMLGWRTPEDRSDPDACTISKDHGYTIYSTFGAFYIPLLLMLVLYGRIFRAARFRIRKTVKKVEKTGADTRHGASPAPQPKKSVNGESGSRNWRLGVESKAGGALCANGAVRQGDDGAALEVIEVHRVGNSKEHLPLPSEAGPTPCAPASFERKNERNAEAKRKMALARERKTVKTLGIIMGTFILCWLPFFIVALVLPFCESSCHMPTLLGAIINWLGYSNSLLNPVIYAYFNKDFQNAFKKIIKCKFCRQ
Briefly: 35S-GTPγS binding assay, 5-HT1A antagonist activity. The data set is classed as biochemical. Conditions: reversal of the effects of standard agonist 8-OH DPAT; for IC50: read-out: 5-HT1A Function IC50. As to the method: Antagonist activity at 5-HT1A receptors was established by using a ^35S-GTPγS binding assay similar to that used by Lazareno and Birdsall (Br. J. Pharmacol. 109: 1120, 1993), in which the test compound's ability to affect the binding of ^35S-GTPγS to membranes containing cloned human 5-HT1A receptors was determined. Agonists produce an increase in binding whereas antagonists produce no increase but rather reverse the effects of the standard agonist 8-OH DPAT. The test compound's maximum inhibitory effect is represented as the Imax, while its potency is defined by the IC50.
A general note: Binding of GTPγS marks nucleotide exchange on a G protein.

Another data set concerns the target T3, human 5-HT1A receptors (Homo sapiens, UniProt P08908).
T3 construct: expressed in transfected cells; host or cells: CHO cells
T3 sequence (P08908 1-422): T2 sequence (P08908 1-422)
In words: [3H] 8-OHDPAT displacement, 5-HT1A receptor affinity. In kind it is binding. The text has this: High affinity for the serotonin 5-HT1A receptor was established by testing the claimed compound's ability to displace [^3H] 8-OHDPAT (dipropylamino-tetralin) from the 5-HT1A serotonin receptor following a modification of the procedure of Hall et al., J. Neurochem. 44, 1685 (1985) which utilizes CHO cells stably transfected with human 5-HT1A receptors.

Where two headings read alike, the source gives them in different places.

T1 sequence (P31652 whole entry): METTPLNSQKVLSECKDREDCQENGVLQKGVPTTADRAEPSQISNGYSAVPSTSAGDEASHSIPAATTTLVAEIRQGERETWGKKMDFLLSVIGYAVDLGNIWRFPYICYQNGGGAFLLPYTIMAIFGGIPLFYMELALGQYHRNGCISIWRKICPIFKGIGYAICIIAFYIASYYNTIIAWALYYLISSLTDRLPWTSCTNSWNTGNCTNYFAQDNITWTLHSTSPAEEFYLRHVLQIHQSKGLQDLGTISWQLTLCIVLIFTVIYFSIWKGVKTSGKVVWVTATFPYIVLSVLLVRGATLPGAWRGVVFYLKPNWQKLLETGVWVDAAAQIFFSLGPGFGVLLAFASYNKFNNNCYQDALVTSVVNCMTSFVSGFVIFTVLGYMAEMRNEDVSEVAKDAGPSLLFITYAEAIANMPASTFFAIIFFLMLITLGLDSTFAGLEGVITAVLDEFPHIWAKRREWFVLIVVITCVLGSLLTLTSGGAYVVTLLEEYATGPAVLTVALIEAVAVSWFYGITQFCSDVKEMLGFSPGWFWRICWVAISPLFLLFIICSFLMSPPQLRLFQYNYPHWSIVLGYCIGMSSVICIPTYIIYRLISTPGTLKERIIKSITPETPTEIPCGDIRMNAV

What is called Ki is the dissociation constant of the complex between target and ligand, obtained from inhibition or displacement. One may read the IC50 as the concentration that inhibits the measured activity by half. In general, melting point refers to the temperature of the solid-liquid transition. In turn, `Cc1nc2ccc3c(c2nc1C)O[C@@H](CN1CC=C(c2c[nH]c4ccccc24)CC1)CO3` [Example 3] displayed a melting point of 153 to 155 °C. The compound also had an inhibitory constant (Ki) on serotonin transporter of 0.00119 µM. Further, in data set [1], the 5-HT1A Function Imax (maximum inhibitory effect) stood at 100% and the IC50 is 0.332 µM. At human 5-HT1A receptors, this compound came in with a Ki of 0.0153 µM.
Consider `CCc1nc2ccc3c(c2nc1CC)OC(CN1CC=C(c2c[nH]c4ccc(F)cc24)CC1)CO3` (stereo not drawn) [Example 6, 8,9-Diethyl-2-{[4-(5-fluoro-1H-indol-3-yl)-3,6-dihydro-1(2H)-pyridinyl]methyl}-2,3-dihydro[1,4]dioxino[2,3-f]quinoxaline], for which the melting point is > 120 °C (dec.). The inhibitory constant (Ki) on serotonin transporter (displacement of 3H-paroxetine from male rat frontal cortical membranes, read-out: 5-HT Transporter Affinity KI) came to 0.014 µM. In data set [1], the 5-HT1A Function Imax (maximum inhibitory effect) was 100% and the IC50 was 2.24 µM. Moreover, at human 5-HT1A receptors (displacement of [3H] 8-OHDPAT, CHO cells stably transfected with human 5-HT1A receptors, read-out: 5-HT1A Receptor Affinity KI), the Ki stood at 0.264 µM.
Compound `Cc1nc2ccc3c(c2nc1C)OC(CN1CC=C(c2c[nH]c4ccc(F)cc24)CC1)CO3` (stereo not drawn) [Example 4, 2-{[4-(5-Fluoro-1H-indol-3-yl)-3,6-dihydro-1(2H)-pyridinyl]methyl}-8,9-dimethyl-2,3-dihydro[1,4]dioxino[2,3-f]quinoxaline] had a melting point of 138 to 141 °C. The same compound had a Ki at serotonin transporter of 0.00157 µM. For the same compound, in data set [1], the 5-HT1A Function Imax (maximum inhibitory effect) is 100% and the IC50 came to 0.389 µM. The compound further registered an inhibition constant (Ki) at human 5-HT1A receptors of 0.0255 µM.
As for `Fc1ccc2[nH]cc(C3=CCN(CC4COc5ccc6nccnc6c5O4)CC3)c2c1` (stereo not drawn) [Example 1, 2-{[4-(5-Fluoro-1H-indol-3-yl)-3,6-dihydro-1(2H)-pyridinyl]methyl}-2,3-dihydro[1,4]dioxino[2,3-f]quinoxaline], the melting point was > 200 °C (dec.). The Ki on serotonin transporter was 0.0005 µM. Also, in data set [1], the 5-HT1A Function Imax (maximum inhibitory effect) amounted to 100% and the concentration for half-maximal inhibition (IC50) is 0.271 µM. The Ki on human 5-HT1A receptors turned out to be 0.0177 µM.
As for `C1=C(c2c[nH]c3ccccc23)CCN(CC2COc3ccc4nccnc4c3O2)C1` (stereo not drawn) [Example 2, 2-{[4-(1H-Indol-3-yl)-3,6-dihydro-1(2H)-pyridinyl]methyl}-2,3-dihydro[1,4]dioxino[2,3-f]quinoxaline], the melting point was > 220 °C (dec.). This compound also had an inhibitory constant (Ki) at serotonin transporter of 0.00286 µM. Moreover, in data set [1], the 5-HT1A Function Imax (maximum inhibitory effect) amounted to 100% and the concentration for half-maximal inhibition (IC50) is 0.203 µM. The compound also yielded a Ki at human 5-HT1A receptors of 0.03 µM.
Take `CCc1nc2ccc3c(c2nc1CC)OC(CN1CC=C(c2c[nH]c4ccccc24)CC1)CO3` (stereo not drawn) [Example 5, 8,9-Diethyl-2-{[4-(1H-indol-3-yl)-3,6-dihydro-1(2H)-pyridinyl]methyl}-2,3-dihydro[1,4]dioxino[2,3-f]quinoxaline]: the melting point was > 120 °C (dec.). At serotonin transporter, the Ki was 0.0095 µM. Besides, in data set [1], the 5-HT1A Function Imax (maximum inhibitory effect) amounted to 98% and the 50% inhibitory concentration (IC50) is 1.86 µM. In addition, the affinity on human 5-HT1A receptors, expressed as Ki, was 0.0992 µM.
